Tests used:
[1] = molecular target: T1, cyclooxygenase-2 (Mus musculus, UniProt Q05769); assay: Cell-based assay for cyclooxygenase-2 inhibition (PGE2 ELISA, LPS-treated RAW264.7 macrophages); settings: lipopolysaccharide-treated murine RAW264.7 macrophages
T1 sequence (Q05769 18-604): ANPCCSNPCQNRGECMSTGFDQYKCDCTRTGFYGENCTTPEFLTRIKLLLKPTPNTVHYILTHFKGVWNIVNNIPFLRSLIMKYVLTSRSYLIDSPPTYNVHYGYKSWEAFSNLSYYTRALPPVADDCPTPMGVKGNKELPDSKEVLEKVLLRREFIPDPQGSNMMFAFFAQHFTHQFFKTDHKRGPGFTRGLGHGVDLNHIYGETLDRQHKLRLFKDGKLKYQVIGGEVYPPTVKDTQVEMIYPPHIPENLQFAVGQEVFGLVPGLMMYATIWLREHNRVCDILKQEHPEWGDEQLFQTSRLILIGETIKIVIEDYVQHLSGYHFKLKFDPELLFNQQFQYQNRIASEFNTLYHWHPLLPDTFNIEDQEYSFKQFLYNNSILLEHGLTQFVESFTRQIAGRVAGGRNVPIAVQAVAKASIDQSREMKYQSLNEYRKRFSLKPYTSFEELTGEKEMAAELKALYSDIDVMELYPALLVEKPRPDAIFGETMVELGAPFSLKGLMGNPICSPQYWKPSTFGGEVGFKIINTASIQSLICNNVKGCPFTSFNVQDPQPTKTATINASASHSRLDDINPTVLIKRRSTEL
Method: RAW 264.7 cells are a murine macrophage cell line that can be induced to express cyclooxygenase-2 by exposure to bacterial endotoxin/lipopolysaccharide (LPS). For this assay, RAW964.7 cells were plated at 90% confluence in 12-well cell culture plates. After attachment, cells were switched to 1 mL of endotoxin-free Dulbecco's Modified Eagle's Medium with high glucose and 0.5% calf serum overnight. Thirty minutes prior to induction of cyclooxygenase-2 expression, varying concentrations of the test compound (ranging from 20 nM to 0.3 nM) were added. NS-398 (a known cyclooxygenase-2 inhibitor) was used at 10 μM, as a control. Inhibitors or vehicle were added to the cultures by removing the existing culture medium and adding fresh medium containing inhibitor or vehicle. Cells were treated with LPS (final concentration, 10 ng per mL) to induce cyclooxygenase-2 expression. After eight hours, the media were collected from the cultures and frozen on dry ice. Cells were harvested and lysed. Protein determinations were performed to normalize PGE2 values to total protein in each well. PGE2 ELISA assays were performed with a commercial kit (Amersham).
The assay was carried out using lipopolysaccharide-treated murine RAW264.7 macrophages as described previously.

melting point: 192 to 195 °C (dec.)
IC50 [1]: 1.25 to 2.5 nM
Structure (SMILES): Cc1onc(-c2ccccc2)c1-c1ccc(S(N)(=O)=O)c(F)c1 [compound 4, 2-Fluoro-4-(5-methyl-3-phenylisoxazol-4-yl)benzenesulfonamide]
